From US12162840B2, “Herbicidal compositions” (SYNGENTA PARTICIPATIONS AG, priority 2018, dated 2024)

Key:
Assay in all cases: B1 Post-emergence efficacy Test 1
Type in all cases: in vivo
Conditions in all cases: post-emergence application, 1000 g/ha, evaluated after 13 days
Lolium perenne (LOLPE) = tested on: Lolium perenne (LOLPE)
Protocol: (§1) Seeds of a variety of test species are sown in standard soil in pots:—Solanum nigrum (SOLNI), Amaranthus retoflexus (AMARE), Setaria faberi (SETFA), Alopecurus myosuroides (ALOMY), Echinochloa crus-galli (ECHCG), Ipomoea hederacea (IPOHE), Lolium perenne (LOLPE). After 8 days cultivation (post-emergence) under controlled conditions in a glasshouse (at 24/16° C., day/night; 14 hours light; 65% humidity), the plants are sprayed with an aqueous spray solution derived from the formulation of the technical active ingredient in acetone/water (50:50) solution containing 0.5% Tween 20 (polyoxyethylene sorbitan monolaurate, CAS RN 9005-64-5). Compounds are applied at 1000 g/ha. The test plants are then grown in a glasshouse under controlled conditions in a glasshouse (at 24/16° C., day/night; 14 hours light; 65% humidity) and watered twice daily. After 13 days, the test is evaluated for the percentage damage caused to the plant. The biological activities are assessed on a five point scale (5=80-100%; 4=60-79%; 3=40-59%; 2=20-39%; 1=0-19%). A blank value in the table is indicative that the compound was not tested on that species.

Setaria faberi (SETFA) = tested on: Setaria faberi (SETFA)
Protocol: as §1

[1] = tested on: Echinochloa crus-galli (ECHCG)
Protocol: as §1

[2] = tested on: Amaranthus retoflexus (AMARE)
Protocol: as §1

[3] = tested on: Ipomoea hederacea (IPOHE)
Protocol: as §1

Solanum nigrum (SOLNI) = tested on: Solanum nigrum (SOLNI)
Protocol: as §1

Row | SMILES | percentage damage caused to the plant, five point scale, LOLPE (Lolium perenne (LOLPE)) | percentage damage caused to the plant, five point scale, SETFA (Setaria faberi (SETFA)) | percentage damage caused to the plant, five point scale, ECHCG [1] | percentage damage caused to the plant, five point scale, AMARE [2] | percentage damage caused to the plant, five point scale, IPOHE [3] | percentage damage caused to the plant, five point scale, SOLNI (Solanum nigrum (SOLNI))
1 | Cc1nn(C)c(=O)c(-c2c(F)ccc(Cl)c2CCc2ccccc2)c1O [Compound 1.001] | 5 (5=80-100%) | 5 (5=80-100%) | 5 (5=80-100%) | 5 (5=80-100%) | 5 (5=80-100%) | 5 (5=80-100%)
2 | Cc1nn(C)c(=O)c(-c2c(F)ccc(Cl)c2/C=C/c2ccccc2)c1O [Compound 1.002] | 4 (4=60-79%) | 3 (3=40-59%) | 4 (4=60-79%) | 4 (4=60-79%) | 5 (5=80-100%) | 5 (5=80-100%)
3 | Cc1nn(C)c(=O)c(-c2c(F)ccc(Cl)c2CCc2ccc(Cl)cc2)c1O [Compound 1.012] | 5 (5=80-100%) | 5 (5=80-100%) | 5 (5=80-100%) | 5 (5=80-100%) | 5 (5=80-100%) | 5 (5=80-100%)
4 | Cc1nn(C)c(=O)c(-c2c(F)ccc(Cl)c2CCc2ccc(C(F)(F)F)cc2)c1O [Compound 1.018] | 5 (5=80-100%) | 5 (5=80-100%) | 5 (5=80-100%) | 5 (5=80-100%) | 5 (5=80-100%) | 5 (5=80-100%)
5 | Cc1nn(C)c(=O)c(-c2c(F)ccc(Cl)c2CCc2cccnc2)c1O [Compound 1.054] | 5 (5=80-100%) | 5 (5=80-100%) | 5 (5=80-100%) | 5 (5=80-100%) | 5 (5=80-100%) | 5 (5=80-100%)
6 | Cc1nn(C)c(=O)c(-c2c(F)ccc(Cl)c2CCc2ccc(F)c(F)c2)c1O [Compound 1.060] | 5 (5=80-100%) | 5 (5=80-100%) | 5 (5=80-100%) | 5 (5=80-100%) | 5 (5=80-100%) | 5 (5=80-100%)
7 | Cc1nn(C)c(=O)c(-c2c(F)ccc(Cl)c2CCc2ccc(C(F)(F)F)cc2)c1OC(=O)C(C)C [Compound 1.095] | 5 (5=80-100%) | – | 5 (5=80-100%) | 5 (5=80-100%) | 5 (5=80-100%) | 5 (5=80-100%)
8 | Cc1ccc(CCc2c(Cl)ccc(F)c2-c2c(OC(=O)C(C)C)c(C)nn(C)c2=O)cc1 [Compound 1.149] | 5 (5=80-100%) | 5 (5=80-100%) | 5 (5=80-100%) | 5 (5=80-100%) | 5 (5=80-100%) | 5 (5=80-100%)
